Measurements taken from ChEMBL document CHEMBL1201862, “PubChem BioAssay data set” (2004).
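48-hour exposure; five concentrations; linearly interpolated endpoints. The concentration for 50% growth inhibition is given as GI50.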 The source made the active and inactive calls. No stated cut-off is given here; in the data, active = GI50 up to about 1.1 µM and inactive = higher.

Tests used:
Experiment in all cases: NCI anticancer screen, dose series, 48 h
[1] = tested on: A549
[2] = tested on: ACHN
[3] = tested on: BT-549
[4] = tested on: CAKI-1
[5] = tested on: HCC 2998
[6] = tested on: HCT-116
[7] = tested on: HOP-62
[8] = tested on: Malme-3M
[9] = tested on: NCI-H23
[10] = tested on: NCI-H522
[11] = tested on: NCI/ADR-RES
[12] = tested on: OVCAR-3
[13] = tested on: OVCAR-4
[14] = tested on: OVCAR-8
[15] = tested on: SK-MEL-2
[16] = tested on: SK-MEL-5
[17] = tested on: SK-OV-3
[18] = tested on: SNB-75
[19] = tested on: U-251
[20] = tested on: SF-539

Structure (SMILES) | GI50 [1] | GI50 [2] | GI50 [3] | GI50 [4] | GI50 [5] | GI50 [6] | GI50 [7] | GI50 [8] | GI50 [9] | GI50 [10] | GI50 [11] | GI50 [12] | GI50 [13] | GI50 [14] | GI50 [15] | GI50 [16] | GI50 [17] | GI50 [18] | GI50 [19] | GI50 [20]
Cc1nc2cccc([N+](=O)[O-])c2n1CCCN(C)C | > 100 µM (inactive) | > 100 µM (inactive) | > 100 µM (inactive) | > 100 µM (inactive) | > 100 µM (inactive) | > 100 µM (inactive) | > 100 µM (inactive) | > 100 µM (inactive) | > 100 µM (inactive) | > 100 µM (inactive) | > 100 µM (inactive) | > 100 µM (inactive) | > 100 µM (inactive) | > 100 µM (inactive) | > 100 µM (inactive) | > 100 µM (inactive) | > 100 µM (inactive) | > 100 µM (inactive) | > 100 µM (inactive) | –
CC(C)(C)C1CC[C@H](O)[C@H]([C@@H](O)CC2CC(=O)N(c3ccccc3)C(=O)C2)C1 (some centres not stated) | 67.5 µM (inactive) | 69 µM (inactive) | 29.4 µM (inactive) | > 100 µM (inactive) | 27.9 µM (inactive) | 60.5 µM (inactive) | > 100 µM (inactive) | 65.5 µM (inactive) | > 100 µM (inactive) | > 100 µM (inactive) | 67.9 µM (inactive) | 50.9 µM (inactive) | 57.5 µM (inactive) | 50.7 µM (inactive) | – | 45.2 µM (inactive) | – | > 100 µM (inactive) | 55.8 µM (inactive) | > 100 µM (inactive)
CCCCCCC1OC23OC1CCC2C(O)CCC3O (configuration not stated) | – | 97.7 µM (inactive) | > 100 µM (inactive) | > 100 µM (inactive) | > 100 µM (inactive) | > 100 µM (inactive) | > 100 µM (inactive) | > 100 µM (inactive) | > 100 µM (inactive) | > 100 µM (inactive) | > 100 µM (inactive) | > 100 µM (inactive) | > 100 µM (inactive) | > 100 µM (inactive) | > 100 µM (inactive) | > 100 µM (inactive) | – | > 100 µM (inactive) | > 100 µM (inactive) | > 100 µM (inactive)
O=C(NCCCCN(CCCNC(=O)C(F)(F)F)Cc1ccc2ccccc2c1)C(F)(F)F | 30.4 µM (inactive) | 24.3 µM (inactive) | 17.1 µM (inactive) | 14.3 µM (inactive) | 13.9 µM (inactive) | 16 µM (inactive) | – | 15.3 µM (inactive) | 20.1 µM (inactive) | 18.2 µM (inactive) | 14.5 µM (inactive) | – | 17.6 µM (inactive) | 16.9 µM (inactive) | – | 19.2 µM (inactive) | 23 µM (inactive) | 11.5 µM (inactive) | 26.4 µM (inactive) | 16.3 µM (inactive)
O=C1/C(=C\c2cccc(Oc3ccccc3)c2)SC(c2ccccc2)N1c1ccccc1Cl (configuration not stated) | 37.5 µM (inactive) | 39.6 µM (inactive) | 21.3 µM (inactive) | 34 µM (inactive) | 17.5 µM (inactive) | 14.9 µM (inactive) | 28.8 µM (inactive) | 33.6 µM (inactive) | 17.5 µM (inactive) | 13.6 µM (inactive) | 27.9 µM (inactive) | 23.7 µM (inactive) | 37.1 µM (inactive) | 21.9 µM (inactive) | 27.9 µM (inactive) | 15.1 µM (inactive) | 25.4 µM (inactive) | – | 16.4 µM (inactive) | 19.1 µM (inactive)
O=C(Cc1ccccc1)N/N=C(/CCN1CCCC1)CC(c1ccccc1)c1c(O)c2ccccc2oc1=O (configuration not stated) | > 100 µM (inactive) | > 100 µM (inactive) | 83.4 µM (inactive) | > 100 µM (inactive) | 95.1 µM (inactive) | 80.2 µM (inactive) | – | 57.4 µM (inactive) | 55.7 µM (inactive) | 59 µM (inactive) | 55.8 µM (inactive) | > 100 µM (inactive) | > 100 µM (inactive) | > 100 µM (inactive) | > 100 µM (inactive) | > 100 µM (inactive) | > 100 µM (inactive) | > 100 µM (inactive) | > 100 µM (inactive) | > 100 µM (inactive)
N=C(N)SC(c1ccccc1)c1ccccc1 | 25.2 µM (inactive) | 14.9 µM (inactive) | 17.6 µM (inactive) | 13.5 µM (inactive) | 6.18 µM (inactive) | 12.2 µM (inactive) | 19.6 µM (inactive) | 18.6 µM (inactive) | 13 µM (inactive) | 13.2 µM (inactive) | 17.2 µM (inactive) | 14.2 µM (inactive) | 18.3 µM (inactive) | 15.3 µM (inactive) | 15 µM (inactive) | 17.3 µM (inactive) | 32.3 µM (inactive) | – | 15.3 µM (inactive) | 20.8 µM (inactive)
COc1ccc(/C=C\c2cc(OC)c(OC)c(OC)c2)cc1OC(=O)CC(N)C(=O)O (configuration not stated) | 0.00449 µM (active) | 0.00437 µM (active) | 0.00646 µM (active) | 0.307 µM (active) | 0.106 µM (active) | 0.00103 µM (active) | 0.00382 µM (active) | 0.00258 µM (active) | 0.0021 µM (active) | 0.00132 µM (active) | 0.000224 µM (active) | 0.00224 µM (active) | 0.189 µM (active) | 0.00301 µM (active) | – | – | 0.00423 µM (active) | 0.000459 µM (active) | 0.00262 µM (active) | 0.00222 µM (active)
CC1(C)CC(=O)C2=C(C1)NC(SCC(=O)O)=C(C#N)C2c1ccc(Br)cc1 (configuration not stated) | > 100 µM (inactive) | > 100 µM (inactive) | > 100 µM (inactive) | > 100 µM (inactive) | > 100 µM (inactive) | > 100 µM (inactive) | > 100 µM (inactive) | – | > 100 µM (inactive) | 86.5 µM (inactive) | > 100 µM (inactive) | > 100 µM (inactive) | > 100 µM (inactive) | > 100 µM (inactive) | > 100 µM (inactive) | > 100 µM (inactive) | > 100 µM (inactive) | > 100 µM (inactive) | > 100 µM (inactive) | –
COC(=O)c1sc(=S)sc1SCc1ccccc1CSc1sc(=S)sc1C(=O)OC | > 100 µM (inactive) | > 100 µM (inactive) | > 100 µM (inactive) | > 100 µM (inactive) | > 100 µM (inactive) | > 100 µM (inactive) | 85.7 µM (inactive) | > 100 µM (inactive) | > 100 µM (inactive) | > 100 µM (inactive) | > 100 µM (inactive) | > 100 µM (inactive) | > 100 µM (inactive) | > 100 µM (inactive) | > 100 µM (inactive) | > 100 µM (inactive) | 46.6 µM (inactive) | 38.6 µM (inactive) | > 100 µM (inactive) | –
Clc1ccc2nc3c(c(-c4ccccc4)nn3-c3ccccc3)c(-c3ccccc3)c2c1 | > 100 µM (inactive) | > 100 µM (inactive) | > 100 µM (inactive) | – | > 100 µM (inactive) | > 100 µM (inactive) | > 100 µM (inactive) | > 100 µM (inactive) | > 100 µM (inactive) | > 100 µM (inactive) | > 100 µM (inactive) | > 100 µM (inactive) | > 100 µM (inactive) | > 100 µM (inactive) | > 100 µM (inactive) | > 100 µM (inactive) | > 100 µM (inactive) | > 100 µM (inactive) | > 100 µM (inactive) | –
CCC(=O)OCN1C(=O)C=CC1=O | 18.7 µM (inactive) | 8.2 µM (inactive) | 18.5 µM (inactive) | 5.08 µM (inactive) | 18.6 µM (inactive) | 16.2 µM (inactive) | 17.8 µM (inactive) | 13.8 µM (inactive) | 18 µM (inactive) | 1.91 µM (inactive) | 24 µM (inactive) | 7.16 µM (inactive) | 17.6 µM (inactive) | 18.3 µM (inactive) | 15.7 µM (inactive) | 27.5 µM (inactive) | > 43.1 µM (inactive) | – | 17.6 µM (inactive) | 18.3 µM (inactive)
CCn1c(SCC(=O)NNC(=S)Nc2ccc(F)cc2)nc2ccccc2c1=O | > 100 µM (inactive) | > 100 µM (inactive) | > 100 µM (inactive) | – | > 100 µM (inactive) | > 100 µM (inactive) | > 100 µM (inactive) | > 100 µM (inactive) | > 100 µM (inactive) | 48 µM (inactive) | > 100 µM (inactive) | > 100 µM (inactive) | 63 µM (inactive) | > 100 µM (inactive) | > 100 µM (inactive) | > 100 µM (inactive) | > 100 µM (inactive) | > 100 µM (inactive) | > 100 µM (inactive) | > 100 µM (inactive)
CC[C@]1(Cc2ccc(OC)c(OC)c2)C=[N+]([O-])O[C@H](OC2CCCC2(c2ccccc2)c2ccccc2)[C@@H]1OC(C)=O (some centres not stated) | 3.54 µM (inactive) | 2.4 µM (inactive) | 8.47 µM (inactive) | 2.95 µM (inactive) | 2.74 µM (inactive) | 2.08 µM (inactive) | 12.4 µM (inactive) | 2.03 µM (inactive) | 5.25 µM (inactive) | 2.83 µM (inactive) | 2.59 µM (inactive) | 1.65 µM (inactive) | 4.84 µM (inactive) | 2.67 µM (inactive) | 4.62 µM (inactive) | 3.55 µM (inactive) | 14.5 µM (inactive) | 2.82 µM (inactive) | 7.94 µM (inactive) | –
COc1ccc(-c2c(C#N)c(O)n(NS(=O)(=O)c3ccc(C)cc3)c(=O)c2C#N)cc1 | 91.8 µM (inactive) | 47.9 µM (inactive) | 54.8 µM (inactive) | > 100 µM (inactive) | 45.9 µM (inactive) | 56 µM (inactive) | 99.3 µM (inactive) | 70.6 µM (inactive) | – | 13.8 µM (inactive) | 61.9 µM (inactive) | – | 81.5 µM (inactive) | 70 µM (inactive) | > 100 µM (inactive) | 42.1 µM (inactive) | > 100 µM (inactive) | > 100 µM (inactive) | 67.8 µM (inactive) | 67.8 µM (inactive)
